Data on one substance can be found in PMC7934871 (JCI Insight, 2021).

In test [1] the test system is pY705-STAT3. Kind of test: Western blotting of p-STAT3 in HCT116 cells. Format: cell-based, human. From the text:
Figure 3 PS-acet.-STAT3 peptide inhibits STAT3 activity and downregulates the expression of STAT3 targets. (A) Downregulation of STAT3 activity and its downstream target proteins shown in human HCT116 colorectal cancer cells by Western blotting (data represent 1 of the 3 experiments, n = 3). PO-acet.-STAT3 and PS-STAT3-K685R peptides were used in parallel as controls. (B) STAT3 inhibition regulated the expression of proliferation and apoptotic genes, assessed by real-time quantitative PCR. Data present mean ± SD, n = 3 independent experiments, 1-way ANOVA; ***P < 0.005; **P < 0.01. […] For p53 promoter assay, data represent 3 replicates in 3 independent experiments (n = 9). For cell proliferation assay, data represent 3 independent experiments. SD is shown (n = 3). One-way ANOVA; ***P < 0.005; **P < 0.01.
Whole cell lysates or tissue homogenates were prepared by using RIPA lysis buffer (50 mM Tris at pH 7.4, 150 mM NaCl, 1 mM EDTA, 0.5% NP-40, 1 mM NaF, 15% glycerol, and 20 mM β-glycerophosphate). A protease inhibitor cocktail (Mini Protease Inhibitor Cocktail; Roche) and a tyrosine phosphatase inhibitor, sodium orthovanadate (Na3VO4, 1 mM), were added freshly to the lysis buffer. Protein amounts were determined by BCA using a Thermo Fisher Scientific kit. Normalized protein amounts were subjected to an SDS-PAGE and transferred onto a nitrocellulose membrane for Western blotting. […] The protein levels for STAT1 (sc-346, E-23), STAT3 (sc-482, C-20), STAT5 (sc-74442, A-9), Crm1 (exportin 1) (sc-5595, H-300), CAS (exportin 2) (sc-271537, H-2), exportin 5 (sc-66885, H-300), and exportin 7 (sc-98639, H-82) were determined using antibodies from Santa Cruz Biotechnology Inc. Anti–exportin 3 (exportin T, 630622, LOS1 05-1525), anti–exportin 4 (3499-1), and anti–exportin 6 (11408-1-AP) were from MilliporeSigma, Epitomics, and Proteintech, respectively. […]
Supplemental Figure 4 (related to Figure 1). […] Phosphorylation of STAT3 at Y705 and STAT5 at Y694 was detected by Western blotting after 48 hours treatment of PS-acet.-STAT3 peptide (1 µM) or napabucasin (1 µM) in HCT116 cells. […]

Test [2] has as its target T1, STAT3-exportin 7 interaction (Homo sapiens, UniProt Q9UIA9).
T1 construct: homogenates prepared from HCT116 colon tumors from mice treated with PO- and PS-acet.-STAT3 peptides; from tissue; host or cells: HCT116 xenograft tumours grown in NSG mice
The test can be described thus: Immunoprecipitation from HCT116 tumor homogenates, STAT3-exportin 7 interaction. The conditions noted are these: homogenates of HCT116 tumors from treated mice, Western blotting. The test is classed as binding. The procedure: Whole cell lysates or tissue homogenates were prepared by using RIPA lysis buffer (50 mM Tris at pH 7.4, 150 mM NaCl, 1 mM EDTA, 0.5% NP-40, 1 mM NaF, 15% glycerol, and 20 mM β-glycerophosphate). A protease inhibitor cocktail (Mini Protease Inhibitor Cocktail; Roche) and a tyrosine phosphatase inhibitor, sodium orthovanadate (Na3VO4, 1 mM), were added freshly to the lysis buffer. Protein amounts were determined by BCA using a Thermo Fisher Scientific kit. Normalized protein amounts were subjected to an SDS-PAGE and transferred onto a nitrocellulose membrane for Western blotting. Proteins were visualized with a chemiluminescent detection kit (Pierce, Thermo Fisher Scientific). The protein levels for STAT1 (sc-346, E-23), STAT3 (sc-482, C-20), STAT5 (sc-74442, A-9), Crm1 (exportin 1) (sc-5595, H-300), CAS (exportin 2) (sc-271537, H-2), exportin 5 (sc-66885, H-300), and exportin 7 (sc-98639, H-82) were determined using antibodies from Santa Cruz Biotechnology Inc. Anti–exportin 3 (exportin T, 630622, LOS1 05-1525), anti–exportin 4 (3499-1), and anti–exportin 6 (11408-1-AP) were from MilliporeSigma, Epitomics, and Proteintech, respectively. […]
(B) PS-acet.-STAT3 peptide downregulates STAT3 phosphorylation, assessed by Western blotting using tumor homogenates prepared from tumors shown in A. […]
On the technique in general: Immunoblotting shows a protein as a band on a membrane.

The target of test [3] is STAT3 (Homo sapiens, UniProt P40763). The test can be described thus: STAT3 protein stability after cycloheximide. Format: cell-based. On the set-up: protein stability of STAT3 in HCT 116 cells; endogenous in cells; host or cells: HCT116. The conditions noted are these: HCT116, 1 µM peptide pre-incubated 2 hours, 0-2 hours, Western blotting, n = 3. As for the experimental part:
(H) The protein stability of STAT3 in HCT 116 cells was measured at different time points as indicated following cycloheximide (CHX) treatment. The cells were pre-incubated with 1 µM of PS-acet.-STAT3 pept. for 2 hours before adding […] of CHX. The protein level of STAT3 was detected by Western blotting. The quantification was analyzed by protein band intensity od STAT3 and actin by ImageJ software. n= 3 independent experiments. SD is shown. Two-way ANOVA; ns, not significant.
Aftabizadeh et and Li al., Figure S5

T1 sequence (Q9UIA9 2-1087 limits assumed): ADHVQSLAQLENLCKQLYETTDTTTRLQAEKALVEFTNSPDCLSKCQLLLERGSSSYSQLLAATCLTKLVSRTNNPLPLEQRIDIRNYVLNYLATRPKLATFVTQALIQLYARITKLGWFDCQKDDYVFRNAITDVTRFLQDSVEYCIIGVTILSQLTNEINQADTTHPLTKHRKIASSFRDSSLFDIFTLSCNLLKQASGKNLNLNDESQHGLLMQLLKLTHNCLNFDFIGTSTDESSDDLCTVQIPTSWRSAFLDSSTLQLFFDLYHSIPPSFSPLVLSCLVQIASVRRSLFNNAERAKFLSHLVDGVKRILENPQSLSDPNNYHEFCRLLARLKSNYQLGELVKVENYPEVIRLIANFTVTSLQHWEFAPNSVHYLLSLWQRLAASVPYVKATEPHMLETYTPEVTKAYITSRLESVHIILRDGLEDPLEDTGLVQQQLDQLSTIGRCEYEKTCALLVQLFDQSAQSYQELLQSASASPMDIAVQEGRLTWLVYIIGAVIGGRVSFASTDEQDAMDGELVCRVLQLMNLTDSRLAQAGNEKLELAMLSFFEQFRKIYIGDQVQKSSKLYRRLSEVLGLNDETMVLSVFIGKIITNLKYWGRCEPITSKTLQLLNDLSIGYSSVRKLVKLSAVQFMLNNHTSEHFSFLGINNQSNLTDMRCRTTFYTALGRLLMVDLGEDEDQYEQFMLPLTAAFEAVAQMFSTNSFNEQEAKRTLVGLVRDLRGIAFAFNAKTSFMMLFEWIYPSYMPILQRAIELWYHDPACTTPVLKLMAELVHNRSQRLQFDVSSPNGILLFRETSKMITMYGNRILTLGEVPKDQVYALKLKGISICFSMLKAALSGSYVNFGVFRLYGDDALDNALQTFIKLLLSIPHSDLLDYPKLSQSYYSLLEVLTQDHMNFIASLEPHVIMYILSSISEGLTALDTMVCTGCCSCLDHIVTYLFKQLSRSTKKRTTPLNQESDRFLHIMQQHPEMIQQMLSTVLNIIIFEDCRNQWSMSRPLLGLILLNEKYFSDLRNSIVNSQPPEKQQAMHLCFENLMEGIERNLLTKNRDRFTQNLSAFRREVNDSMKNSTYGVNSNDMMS
STAT3, sequence (P40763 whole entry): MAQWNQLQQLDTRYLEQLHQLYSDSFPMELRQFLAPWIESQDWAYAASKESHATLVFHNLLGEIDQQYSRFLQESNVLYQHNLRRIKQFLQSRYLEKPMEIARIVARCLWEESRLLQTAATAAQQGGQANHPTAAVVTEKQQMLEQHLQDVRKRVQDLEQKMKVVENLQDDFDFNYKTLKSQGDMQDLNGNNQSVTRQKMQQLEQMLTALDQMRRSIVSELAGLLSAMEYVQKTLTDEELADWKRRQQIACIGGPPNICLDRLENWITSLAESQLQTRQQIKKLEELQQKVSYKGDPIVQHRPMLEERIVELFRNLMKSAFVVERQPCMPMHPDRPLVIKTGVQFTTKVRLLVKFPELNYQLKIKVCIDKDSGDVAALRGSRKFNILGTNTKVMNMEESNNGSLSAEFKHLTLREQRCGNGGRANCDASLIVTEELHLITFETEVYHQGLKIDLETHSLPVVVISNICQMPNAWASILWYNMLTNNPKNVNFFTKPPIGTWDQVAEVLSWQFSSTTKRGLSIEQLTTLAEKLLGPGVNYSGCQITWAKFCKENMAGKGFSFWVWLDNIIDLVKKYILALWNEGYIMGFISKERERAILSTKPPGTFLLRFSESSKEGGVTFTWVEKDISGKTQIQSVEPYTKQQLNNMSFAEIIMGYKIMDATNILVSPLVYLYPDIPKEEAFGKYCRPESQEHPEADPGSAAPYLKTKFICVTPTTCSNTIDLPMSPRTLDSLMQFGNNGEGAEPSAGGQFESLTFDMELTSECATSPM

“PDIPKEEAFGK685(Ac)YCRPESQEHPC-linker-T*C*C*A*T*G*A*G*C*T*T*C*C*T*G*A*T*G*C*T [PS-acet.-STAT3 peptide]”: in test [1] (HCT116, 1 µM, 48 hours), the “phosphorylated STAT3 (p-STAT3, Y705) level” value is “reduced”. The “STAT3 activation (pY705-STAT3)” value in test [1] (HCT116, approximately 1 μM) is on record as “significant downregulation”. In addition, in test [2], the “STAT3 binding to exportin 7 in tumor tissues” value is recorded as “blocked” and the “binding to exportin 7 in tumor tissues” value is listed as “bound”. Also, the “protein stability of STAT3” value in test [3] is “not affected”.
